Key:
[1] = system: Shiokari wild-type and ccd mutant seedlings (d17, d10, d3); test: Zaxinone effect on root phenotypes of Shiokari wild-type and ccd mutant seedlings; type: in vivo, rice (Shiokari)
Experimental: (§1) For investigation of the zaxinone effect on CCD mutant phenotypes, one week-old seedlings were grown hydroponically in Hoagland nutrient solution containing K2HPO4·2H2O (+Pi) for 3 weeks with 2.5 μM zaxinone treatment or Mock treatment (0.1% acetone). The solution was changed every other day, adding the chemical at each renewal. Plants grown without zaxinone served as the controls and phenotypic data were recorded.
The effect of zaxinone (2.5 μM) on root phenotypes of hydroponically grown Shiokari wild-type and ccd mutant seedlings was also studied. FIG. 16D is a visual determination of root growth with (2.5 μM) zaxinone added to the growth medium and without zaxinone (control) for Shiokari wild-type seedlings and ccd mutant seedlings, d17, d10 and d3. The roots of seedlings grown with zaxinone were visually determined to be increased over the controls, with the wild-type (WT) showing the greatest increase. The visual results are confirmed by the root length and root biomass measurements seen in graphs FIG. 16D.

Zaxinone Synthase (ZAS) = test: qRT-PCR of ZAS transcript levels in rice after zaxinone or GR24; type: in vivo, rice (Nipponbare); details: phosphate starvation, 5 μM, 6 h
Experimental: (§2) Total RNA was extracted from the roots and shoots using a Qiagen Plant RNeasy Kit according to the manufacturer's instruction. cDNA was synthesized from 1 μg of total RNA using iScript cDNA Synthesis Kit (BIO-RAD Laboratories, Inc, 2000 Alfred Nobel Drive, Hercules, CA, Cat. No #170-8890) according to instructions in the user manual. For mycorrhizal samples, single-strand cDNA was synthesized from 1 μg of total RNA using Super-Script II (Invitrogen) according to instructions in the user manual. Primers used for real-time quantitative RT-PCR (qRT-PCR) analysis are listed below in Table 3. qRT-PCR was performed using SYBR Green Master Mix (Applied Biosystems; www.lifetechnologies.com) in a StepOnePlus (Life Technologies, Carlsbad, CA, USA). For mycorrhizal samples, qRT-PCR was performed using a Rotor-Gene Q 5plex HRM Platform (Qiagen). The 2-ΔCt method was used to calculate the relative gene expression levels and rice Ubiquitin (OsUBQ or OsRubQ1) gene was used as the internal control to normalize target gene expression.
FIGS. 14A-14C show transcript levels of Zaxinone Synthase (ZAS) in wild type roots and shoots. In FIG. 14A, the relative expression levels of ZAS under normal (+Pi) and phosphate-starved (−Pi) conditions in Nipponbare wild-type (WT) roots and shoots is seen. The expression levels in the WT root were normalized to 1. In FIG. 14B, the relative expression levels of ZAS under −Pi conditions with 5 μM of Zaxinone and GR24 treatment in WT rice root and shoot is seen. Three weeks-old seedlings were transferred to new hydroponic pots containing fresh media with or without chemicals for 6 h. The expression levels in the WT-mock were normalized to 1 and the expression levels were detected by qRT-PCR. Ubiquitin was used as a reference gene. Bars represent mean±SD (n=3). Mock treatment (0.1% acetone). Different letters above each bar denote significant difference following a One-way ANOVA test (P<0.05).

[2] = system: wild-type and zas mutant rice seedlings; test: Rescue of zas mutant root phenotype, hydroponically grown rice seedlings; type: in vivo, Oryza sativa Nipponbare; details: hydroponic, 2.5 μM zaxinone
Experimental: as §1, with “rescue” for “investigation”, “zas” for “the zaxinone effect on CCD”, “phenotype with zaxinone,” for “phenotypes,”
Phenotypic characteristics of hydroponically grown Nipponbare wild-type and zas mutant rice plants were examined to determine the effect of zaxinone treatment on plant growth. Data are means±SD [(FIG. 16A), n=12; (FIG. 16B), n=6; (FIG. 16C), n=4; (FIG. 16D), n=8; Con=Control, Zax=Zaxinone]. Different letters denote significant difference following a One-way ANOVA test (P<0.05).

[3] = system: SL biosynthesis genes (D27, CCD7, CCD8 and CO); test: qRT-PCR of transcript levels of SL biosynthesis genes (all four together) in rice roots; type: in vivo; details: for expression levels of D27, CCD7, CCD8 and CO: −Pi
Experimental: For the analysis of SL transcript levels in the zas mutant, one week-old seedlings were grown hydroponically in half-strength modified Hoagland nutrient solution with K2HPO4·2H2O (+Pi) and without K2HPO4·2H2O (−Pi) for 7 days. Seedlings were further treated with zaxinone for 6 h and tissues were collected.
as §2
Two week-old seedlings were grown for another one week in −Pi solution and then transferred to new vials containing fresh −Pi solution with and without the indicated concentrations (2.5 μM, 5 μM, 10 μM and 20 μM) of zaxinone for 6 h and samples were collected. SL biosynthetic genes expression for D27 (FIG. 19A), CCD7 […], CCD8 (FIG. 19C), and CO (Carlactone oxidase-FIG. 19D) in WT and zas mutants. […] The expression levels were detected by quantitative RT-PCR. Ubiquitin was used as a reference gene and the expression levels in the WT-mock were normalized to 1. Bars represent mean±SD (n=3). Different letters above each bar denote significant difference following a One-way ANOVA test (P<0.05).
Transcript levels of SL biosynthesis genes, D27 (FIG. 24C), CCD7/D17 (FIG. 24D), CCD8/D10 (FIG. 24E) and OsCO (Carlactone oxidase—FIG. 24F) in root tissues were collected for SL quantification. The expression levels were detected by qRT-PCR. Ubiquitin was used as a reference gene and the expression levels in the WT-mock were normalized to 1. Two week-old seedlings were grown for another one week in −Pi solution and then transferred to new vials containing fresh −Pi solution with and without 5 μM of zaxinone and GR24 for 6 h and samples were collected. Bars represent mean±SD (n=3). Different letters above each bar denote significant difference following a One-way ANOVA test (P<0.05).

[4] = system: wild-type and zas mutant rice plants; test: Rescue of zas mutant phenotype, soil-grown rice in rhizotron root analysis system; type: in vivo, Oryza sativa Nipponbare; details: 10 μM zaxinone
Experimental: Three days-old seedlings were grown in soil in Hoagland nutrient solution containing K2HPO4·2H2O (+Pi) with 10 μM zaxinone treatment. The solution was changed every other day for 2 weeks, adding the chemical at each renewal. Plants grown without zaxinone served as the controls and phenotypic data were recorded. To prevent zaxinone degradation from light exposure, 1 μl/ml emulsifier was added into the Hoagland nutrient solution.

## CC(=O)/C=C/C=C(C)/C=C/C1=C(C)C[C@@H](O)CC1(C)C [zaxinone, 3-OH-β-apo-13-carotenone]
[1]; SL biosynthesis and perception mutants
  growth of roots in SL deficient mutants: did not promote the growth of roots
[1]; Shiokari wild-type and d17, d10, d3 seedlings, hydroponic, 2.5 μM zaxinone
  root growth (root length and root biomass): increasing the root growth for all of the seedlings
Zaxinone Synthase (ZAS); WT rice root tissues
  effect on ZAS transcript levels compared between zaxinone and GR24: more pronounced effect
Zaxinone Synthase (ZAS); WT rice
  ZAS transcript levels in root tissues: negatively impacted
[2]; wild type plants
  root growth: increase in root growth
[2]; zas mutant, three weeks, untreated 7-9 cm
  crown root length: 10-11 cm
[2]; zas mutant, three weeks, untreated 12-22 mg DW
  root biomass: 28-35 mg DW
[2]; zas mutant, three weeks, untreated 20-23
  crown root number: 27-32
[3]; Shiokari wild-type and d3 seedlings, phosphate-starved, 5 μM, 6 h
  SL transcript levels in roots: decreased
[3]; WT and zas root tissues, normal phosphorus (+Pi), zaxinone 6 h
  transcript levels of D27, CCD7, CCD8 and CO: nor was there a pronounced effect
[3]; wild-type roots, 2.5-20 μM zaxinone, 6 h
  expression levels of D27, CCD7, CCD8 and CO: decreased the expression levels of the wild-type to levels below the WT/Mock control level
[3]; zas mutant and wild-type seedlings, phosphate starvation, 5 μM zaxinone
  transcript levels of D27, CCD7, CCD8 and CO: decreased the transcript levels
[3]; zas mutant roots, increased concentrations (5, 10, 20 μM) vs 2.5 μM, 6 h
  expression levels of D27, CCD7, CCD8 and CO: Only slight decreases
[3]; zas mutant roots, lowest level of zaxinone (2.5 μM), 6 h
  expression levels of D27, CCD7, CCD8 and CO: reduced the expression levels to near the WT/Mock level
[3]; zaxinone treated zas mutants (zas/Zax), phosphate starvation, 5 μM
  relative expression of transcript levels of D27, CCD7, CCD8 and CO: at or near levels for the wild-type controls
[4]; wild-type seedlings
  shoots and roots vs untreated control seedlings (visual): some improvement
[4]; zas mutant seedlings
  shoots and roots vs untreated control seedlings (visual): substantial improvement
[4]; zas mutant
  increase of shoot length over untreated seedlings: about 10 cm
  shoot biomass vs untreated: doubled
[4]; zas mutant, untreated 15-20 cm^2
  root surface area: 25-50 cm^2

Source: US11839210B1, “Plant growth promoter with strigolactones regulation activities” (King Abdullah University of Science and Technology, priority 2017, dated 2023)
